Converted amounts (≈) assume the structure as drawn. Read-outs that look alike come from different tables or passages of the source. Bridge positions count the residues as written; N and C are the ends. Square brackets hold non-standard residues; d marks the D form. Peptide text beside a SMILES is read from it. * marks the point of attachment. X16 = Cc1cc(C)cc(CO[C@@H](CCN)C(=O)*)c1; dCha = N[C@H](CC1CCCCC1)C(=O)O; Dab = NCC[C@H](N)C(=O)O; Dap = NC[C@H](N)C(=O)O
What was measured:
Format in all cases: cell-based
HK-2 cells = system: HK-2 cells
Description: Values are reported relative to Polymyxin B.

Escherichia coli = system: Escherichia coli
Summary of the method: (§1)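 Each compound was tested against a panel of up to nine strains per Gram-negative species. The panel included strains that show elevated MICs to Polymyxin. Activity was recorded as MIC in μg/mL.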

Pseudomonas aeruginosa = system: Pseudomonas aeruginosa
Summary of the method: as §1

Klebsiella pneumoniae = system: Klebsiella pneumoniae
Summary of the method: as §1

Acinetobacter baumannii = system: Acinetobacter baumannii
Summary of the method: as §1

| Compound | HK-2 IC50 (HK-2 cells) [µg/mL] | MIC E. coli 058 (Escherichia coli) [µg/mL] | MIC E. coli 061 (Escherichia coli) [µg/mL] | MIC E. coli ATCC 25922 (Escherichia coli) [µg/mL] | MIC P. aeruginosa 068 (Pseudomonas aeruginosa) [µg/mL] | MIC P. aeruginosa 070 (Pseudomonas aeruginosa) [µg/mL] | MIC P. aeruginosa ATCC 27853 (Pseudomonas aeruginosa) [µg/mL] | MIC K. pneumoniae 063 (Klebsiella pneumoniae) [µg/mL] | MIC K. pneumoniae 065 (Klebsiella pneumoniae) [µg/mL] | MIC K. pneumoniae ATCC 4352 (Klebsiella pneumoniae) [µg/mL] | MIC A. baumanii 053 (Acinetobacter baumannii) [µg/mL] | MIC A. baumanii 056 (Acinetobacter baumannii) [µg/mL] | MIC A. baumanii ATCC BAA-747 (Acinetobacter baumannii) [µg/mL] | MIC E. coli NCTC 9001 (Escherichia coli) [µg/mL] | MIC P. aeruginosa CCUG 59347 (Pseudomonas aeruginosa) [µg/mL] | MIC K. pneumoniae ATCC 13882 (Klebsiella pneumoniae) [µg/mL] | MIC A. baumanii NCTC 13424 (Acinetobacter baumannii) [µg/mL] | other results |
| --- | --- | --- | --- | --- | --- | --- | --- | --- | --- | --- | --- | --- | --- | --- | --- | --- | --- | --- |
| 2-(2- Aminoethyl) octanoyl L- Thr-L-Dap- polymyxin heptapeptide [Example C6, reference compound] | – | – | – | – | – | – | – | – | – | – | – | – | – | – | – | – | – | HK-2 IC50 (HK-2 cells; HK-2 cells): 51 µg/mL; MIC E. coli 058 (Escherichia coli; strain 058): 1 µg/mL; MIC E. coli 061 (Escherichia coli; strain 061): 8 µg/mL; MIC E. coli ATCC 25922 (Escherichia coli; strain ATCC 25922): 0.125 µg/mL; MIC E. coli NCTC 9001 (Escherichia coli; strain NCTC 9001): 0.06 µg/mL; MIC P. aeruginosa 068 (Pseudomonas aeruginosa; strain 068): 2 µg/mL; MIC P. aeruginosa 070 (Pseudomonas aeruginosa; strain 070): 8 µg/mL; MIC P. aeruginosa ATCC 27853 (Pseudomonas aeruginosa; strain ATCC 27853): 0.125 µg/mL; MIC P. aeruginosa CCUG 59347 (Pseudomonas aeruginosa; strain CCUG 59347): 0.125 µg/mL; MIC K. pneumoniae 063 (Klebsiella pneumoniae; strain 063): 8 µg/mL; MIC K. pneumoniae 065 (Klebsiella pneumoniae; strain 065): 0.25 µg/mL; MIC K. pneumoniae ATCC 4352 (Klebsiella pneumoniae; strain ATCC 4352): 0.06 µg/mL; MIC K. pneumoniae ATCC 13882 (Klebsiella pneumoniae; strain ATCC 13882): 0.125 µg/mL; MIC A. baumanii 053 (Acinetobacter baumannii; strain 053): 32 µg/mL; MIC A. baumanii 056 (Acinetobacter baumannii; strain 056): 32 µg/mL; MIC A. baumanii ATCC BAA-747 (Acinetobacter baumannii; strain ATCC BAA-747): 0.06 µg/mL; MIC A. baumanii NCTC 13424 (Acinetobacter baumannii; strain NCTC 13424): 0.03 µg/mL |
| CC(C)CC1CNCC(C(=O)N[C@H](C(=O)N[C@@H](CN)C(=O)N[C@H]2CCNC(=O)[C@H]([C@@H](C)O)NC(=O)[C@H](CCN)NC(=O)[C@H](CCN)NC(=O)[C@H](CC(C)C)NC(=O)[C@@H](Cc3ccc(-c4ccccc4)cc3)NC(=O)[C@H](CCN)NC2=O)C(C)O)C1 (single isomer, unassigned; isomer 1) [Example 3, (trans-5-(isobutyl-piperidine)-3-carbonyl L-Thr-L-Dap-polymyxin [D-(4-phenyl)Phe]-6] heptapeptide. Isomer 1] | 34 | 8 (≈ 6.71 µM) | 32 (≈ 26.8 µM) | 0.5 (≈ 0.419 µM) | 4 (≈ 3.35 µM) | 4 (≈ 3.35 µM) | 1 (≈ 0.839 µM) | >64 | 32 (≈ 26.8 µM) | 0.5 (≈ 0.419 µM) | 64 (≈ 53.7 µM) | 4 (≈ 3.35 µM) | 2 (≈ 1.68 µM) | – | – | – | – | MIC E. coli 059 (Escherichia coli): 8 µg/mL (≈ 6.71 µM); MIC E. coli 060 (Escherichia coli): 16 µg/mL (≈ 13.4 µM); MIC K. pneumoniae 062 (Klebsiella pneumoniae): >64 µg/mL; MIC K. pneumoniae 064 (Klebsiella pneumoniae): 32 µg/mL (≈ 26.8 µM); MIC K. pneumoniae 067 (Klebsiella pneumoniae): >64 µg/mL |
| CC(C)CC(CN)C(=O)N[C@H](C(=O)N[C@@H](CN)C(=O)N[C@H]1CCNC(=O)[C@H]([C@@H](C)O)NC(=O)[C@H](CCN)NC(=O)[C@H](CCN)NC(=O)[C@H](CC(C)C)NC(=O)[C@@H](Cc2ccc(-c3ccc(C(F)(F)F)cc3)cc2)NC(=O)[C@H](CCN)NC1=O)C(C)O (single isomer, unassigned; isomer 1) [Example 20, 2-Aminomethyl-4-methyl pentanoyl polymyxin L-Thr-L-Dap-polymyxin [D-{4-(4-trifluoromethyl)phenyl} Phe]-6]heptapeptide. Isomer 1] | 10 | 4 (≈ 3.28 µM) | – | 1 (≈ 0.819 µM) | – | – | 1 (≈ 0.819 µM) | – | 1 (≈ 0.819 µM) | 0.5 (≈ 0.41 µM) | – | – | 0.5 (≈ 0.41 µM) | – | – | – | – | – |
| CC(C)C[C@@H]1NC(=O)[C@@H](CC2CCCCC2)NC(=O)[C@H](CCN)NC(=O)[C@@H](NC(=O)[C@H](CN)NC(=O)[C@@H](NC(=O)CC(N)C2CCCCC2)C(C)O)CCNC(=O)[C@H]([C@@H](C)O)NC(=O)[C@H](CCN)NC(=O)[C@H](CCN)NC1=O (single isomer, unassigned; isomer 1) [Example 32, 3-amino-3-cyclohexylpropanoyl L-Thr-L-Dap-polymyxin [D-cyclohexylalanine]-6 heptapeptide. Isomer 1] | 73 | 2 (≈ 1.8 µM) | 16 (≈ 14.4 µM) | 0.25 (≈ 0.226 µM) | 4 (≈ 3.61 µM) | 4 (≈ 3.61 µM) | 0.5 (≈ 0.451 µM) | 16 (≈ 14.4 µM) | – | 0.06 (≈ 0.0541 µM) | – | 64 (≈ 57.7 µM) | 0.25 (≈ 0.226 µM) | 0.125 (≈ 0.113 µM) | 0.5 (≈ 0.451 µM) | 0.25 (≈ 0.226 µM) | 0.06 (≈ 0.0541 µM) | – |
| Cc1cc(C)cc(CO[C@@H](CCN)C(=O)N[C@H](C(=O)N[C@@H](CN)C(=O)N[C@H]2CCNC(=O)[C@H]([C@@H](C)O)NC(=O)[C@H](CCN)NC(=O)[C@H](CCN)NC(=O)[C@H](CC(C)C)NC(=O)[C@@H](CC3CCCCC3)NC(=O)[C@H](CCN)NC2=O)[C@@H](C)O)c1 [Example 90, (S)-4-amino-2-((3,5-dimethylbenzyl)oxy)butanoyl L-Thr-L-Dap-polymyxin [D-cyclohexylalanine-6]heptapeptide] (X16-T[Dap][Dab][Dab][dCha]L[Dab][Dab]T; lactam 3-C) | – | 2 (≈ 1.7 µM) | 16 (≈ 13.6 µM) | 0.125 (≈ 0.106 µM) | 4 (≈ 3.41 µM) | 16 (≈ 13.6 µM) | 0.125 (≈ 0.106 µM) | 64 (≈ 54.5 µM) | 4 (≈ 3.41 µM) | – | >64 | 32 (≈ 27.2 µM) | 0.125 (≈ 0.106 µM) | 0.125 (≈ 0.106 µM) | 0.25 (≈ 0.213 µM) | 0.25 (≈ 0.213 µM) | 0.06 (≈ 0.0511 µM) | – |

Source: patent US12146004B2, “Polymyxin compounds and uses thereof” (priority 2014, dated 2024)
